Test results published in ChEMBL document CHEMBL1123136, “Difluorostatine- and difluorostatone-containing peptides as potent and specific renin inhibitors” (J Med Chem, 1985).
Non-standard residues stand in square brackets, D forms with d. Residues, ends and D or L forms follow the SMILES beside them. *: point of attachment. Sta = CC(C)C[C@H](N)[C@@H](O)CC(=O)O; NHCH2(2-pyridyl) = c1ccc(CN*)nc1; Boc = CC(C)(C)OC(=O)*

What was measured:
[1] = target: T1, Renin (Homo sapiens, UniProt P00797); test: Plasma renin inhibitory activity was evaluated in lyophilized human plasma with 0.1%EDTA; assay type: cell-free
T1 sequence (P00797 whole entry): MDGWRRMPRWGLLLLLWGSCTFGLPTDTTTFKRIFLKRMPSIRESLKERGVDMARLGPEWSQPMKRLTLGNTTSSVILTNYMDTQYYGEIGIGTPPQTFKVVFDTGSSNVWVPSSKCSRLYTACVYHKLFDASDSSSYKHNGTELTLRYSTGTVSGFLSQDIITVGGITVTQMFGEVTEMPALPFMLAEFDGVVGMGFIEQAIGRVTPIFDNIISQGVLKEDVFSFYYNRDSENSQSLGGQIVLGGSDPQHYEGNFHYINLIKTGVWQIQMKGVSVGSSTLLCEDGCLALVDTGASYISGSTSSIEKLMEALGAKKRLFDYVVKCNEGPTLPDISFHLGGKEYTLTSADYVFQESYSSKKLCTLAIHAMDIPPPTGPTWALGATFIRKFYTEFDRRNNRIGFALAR

[2] = target: T2, Angiotensin-converting enzyme (Oryctolagus cuniculus, UniProt P12822); test: Inhibitory activity was evaluated against Angiotensin I converting enzyme activity in rabbit
T2 sequence (P12822 whole entry): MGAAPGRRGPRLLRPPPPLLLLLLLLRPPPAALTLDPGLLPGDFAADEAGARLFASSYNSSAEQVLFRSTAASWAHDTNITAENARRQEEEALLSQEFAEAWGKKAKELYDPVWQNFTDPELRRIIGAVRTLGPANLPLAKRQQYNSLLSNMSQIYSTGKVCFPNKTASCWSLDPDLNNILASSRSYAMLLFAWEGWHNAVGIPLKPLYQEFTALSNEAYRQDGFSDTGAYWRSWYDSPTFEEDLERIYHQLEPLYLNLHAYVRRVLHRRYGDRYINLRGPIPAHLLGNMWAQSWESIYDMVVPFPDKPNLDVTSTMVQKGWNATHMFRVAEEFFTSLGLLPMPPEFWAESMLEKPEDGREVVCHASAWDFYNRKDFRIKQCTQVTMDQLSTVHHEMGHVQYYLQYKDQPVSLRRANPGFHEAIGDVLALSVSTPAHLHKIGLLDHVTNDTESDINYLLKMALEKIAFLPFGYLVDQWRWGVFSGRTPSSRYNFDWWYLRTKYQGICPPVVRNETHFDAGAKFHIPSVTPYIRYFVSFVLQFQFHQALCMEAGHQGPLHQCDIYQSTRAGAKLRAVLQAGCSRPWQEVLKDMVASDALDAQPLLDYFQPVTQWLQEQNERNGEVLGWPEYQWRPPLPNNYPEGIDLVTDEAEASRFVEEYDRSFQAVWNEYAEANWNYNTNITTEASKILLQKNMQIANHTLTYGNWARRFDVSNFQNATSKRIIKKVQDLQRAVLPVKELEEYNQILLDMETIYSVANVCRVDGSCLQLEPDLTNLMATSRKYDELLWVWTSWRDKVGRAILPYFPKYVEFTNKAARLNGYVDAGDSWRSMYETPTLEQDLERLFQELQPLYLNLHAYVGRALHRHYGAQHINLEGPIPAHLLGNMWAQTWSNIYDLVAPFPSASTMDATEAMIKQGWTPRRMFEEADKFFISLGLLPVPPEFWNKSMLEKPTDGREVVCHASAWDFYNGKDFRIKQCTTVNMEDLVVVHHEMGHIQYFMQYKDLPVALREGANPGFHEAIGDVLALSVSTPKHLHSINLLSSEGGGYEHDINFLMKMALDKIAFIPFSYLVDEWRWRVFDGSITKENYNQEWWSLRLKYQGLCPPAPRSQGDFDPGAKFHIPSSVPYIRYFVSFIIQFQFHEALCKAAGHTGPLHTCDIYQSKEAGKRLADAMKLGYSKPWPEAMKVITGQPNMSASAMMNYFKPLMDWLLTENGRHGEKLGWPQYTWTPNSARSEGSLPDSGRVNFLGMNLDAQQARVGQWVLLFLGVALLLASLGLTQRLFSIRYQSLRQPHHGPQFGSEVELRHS

[3] = target: Pepsin A (Sus scrofa, UniProt P00791); test: Inhibitory activity was evaluated against pepsin using porcine pepsin (sigma), porcine hemoglobin (sigma) and 0.02 M KCl-HCl buffer (pH 2)
Pepsin A, sequence (P00791 whole entry): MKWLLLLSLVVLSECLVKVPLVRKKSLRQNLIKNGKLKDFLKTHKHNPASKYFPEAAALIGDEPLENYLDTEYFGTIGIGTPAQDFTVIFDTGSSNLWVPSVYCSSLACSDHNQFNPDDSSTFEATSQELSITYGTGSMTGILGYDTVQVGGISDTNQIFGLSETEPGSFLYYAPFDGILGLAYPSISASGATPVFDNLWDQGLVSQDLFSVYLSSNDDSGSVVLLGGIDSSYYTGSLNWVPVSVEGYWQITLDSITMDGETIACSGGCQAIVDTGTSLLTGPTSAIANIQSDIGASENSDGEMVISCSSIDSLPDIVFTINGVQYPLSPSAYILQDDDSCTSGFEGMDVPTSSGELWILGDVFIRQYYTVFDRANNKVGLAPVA

IC50 [1] [nM]	Compound	further results
34	CC[C@H](C)[C@H](NC(=O)CC(=O)[C@H](CC(C)C)NC(=O)[C@H](Cc1c[nH]cn1)NC(=O)[C@H](Cc1ccccc1)NC(=O)OC(C)(C)C)C(=O)NCc1ccccn1	–
1.7	CC[C@H](C)[C@H](NC(=O)C[C@H](O)[C@H](CC(C)C)NC(=O)[C@H](Cc1c[nH]cn1)NC(=O)[C@H](Cc1ccccc1)NC(=O)OC(C)(C)C)C(=O)NCc1ccccn1 (Boc-FH[Sta]I-{NHCH2(2-pyridyl)})	–

More lines, now with the values behind:

Compound	IC50 [1] [nM]	further results
CC[C@H](C)[C@H](NC(=O)C(F)(F)[C@H](O)[C@H](CC(C)C)NC(=O)[C@H](Cc1c[nH]cn1)NC(=O)[C@H](Cc1ccccc1)NC(=O)OC(C)(C)C)C(=O)NCc1ccccn1	12	–
CC[C@H](C)[C@H](NC(=O)C(F)(F)[C@@H](O)[C@H](CC(C)C)NC(=O)[C@H](Cc1c[nH]cn1)NC(=O)[C@H](Cc1ccccc1)NC(=O)OC(C)(C)C)C(=O)NCc1ccccn1	730	–
H-PHPFHFFVYK-OH [RIP]	–	IC50 [2]: 12000 nM
CC(C)CC(=O)N[C@H](C(=O)N[C@H](C(=O)N[C@@H](CC(C)C)[C@@H](O)CC(=O)N[C@@H](C)C(=O)N[C@@H](CC(C)C)[C@@H](O)CC(=O)O)C(C)C)C(C)C [PEPSTATIN]	–	IC50 [3]: 10 nM
CC[C@H](C)[C@H](NC(=O)C(F)(F)C(=O)[C@H](CC(C)C)NC(=O)[C@H](Cc1c[nH]cn1)NC(=O)[C@H](Cc1ccccc1)NC(=O)OC(C)(C)C)C(=O)NCc1ccccn1	0.52	–
